This is an account of results in PubChem BioAssay (NCI).

Structures are written as SMILES.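 Each compound was tested at five concentrations against cells in 96-well plates for 48 hours. TGI: concentration producing complete growth inhibition.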

Some test systems named below: HCC-2998 colon; SNB-19 CNS; CCRF-CEM leukemia; MCF7 breast; HOP-92 NSCLC; TK-10 renal; SK-OV-3 ovarian; OVCAR-8 ovarian; SF-268 CNS; SK-MEL-2 melanoma; 786-0 renal; BT-549 breast; OVCAR-4 ovarian; HOP-62 NSCLC; SF-539 CNS; SK-MEL-5 melanoma.
Common to all, as to assay: growth of human tumour cells (NCI), 48 h

For `Cc1ccc(C)n1-c1ccccc1C1C=Cn2c(=O)nnc3c(OC(C)C)c(OC(C)C)c(O)c1c32` (configuration not stated), the TGI in the assay with HCC-2998 colon, in the assay on SNB-19 CNS, with CCRF-CEM leukemia, in the assay with MCF7 breast, in the assay on HOP-92 NSCLC and in the assay on TK-10 renal was > 100 µM each time. For the same compound, the TGI is > 100 µM in the assay on SK-OV-3 ovarian; > 100 µM in the assay with OVCAR-8 ovarian; > 100 µM in the assay with SF-268 CNS; > 100 µM in the assay with SK-MEL-2 melanoma; 65.7 µM in the assay with 786-0 renal; > 100 µM in the assay on BT-549 breast. Also, the TGI in the assay on OVCAR-4 ovarian, in the assay with HOP-62 NSCLC, with SF-539 CNS and in the assay with SK-MEL-5 melanoma was > 100 µM each time.
Consider `COc1cc2c(cc1OC)OC(c1c(OC)ccc(OC)c1O)CC2` (configuration not stated), for which the TGI was > 100 µM in the assay with HCC-2998 colon; > 100 µM in the assay with SNB-19 CNS; 77.8 µM in the assay on CCRF-CEM leukemia; > 100 µM with MCF7 breast; > 100 µM in the assay on HOP-92 NSCLC; > 100 µM in the assay with TK-10 renal. Besides, the TGI with SK-OV-3 ovarian, in the assay on OVCAR-8 ovarian, with SF-268 CNS, with SK-MEL-2 melanoma, in the assay with 786-0 renal and in the assay on BT-549 breast was > 100 µM in each case. Besides, the TGI with OVCAR-4 ovarian, in the assay on HOP-62 NSCLC, in the assay on SF-539 CNS and in the assay on SK-MEL-5 melanoma was > 100 µM throughout.
